Source: PubChem BioAssay (NCI)
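Values below derive from 48-hour exposures of cells grown in 96-well plates, with endpoints linearly interpolated between the two concentrations bracketing the appropriate inhibition level. GI50 = concentration required for 50% inhibition of growth. TGI marks complete inhibition of growth.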

Tests used:
Assay in all cases: NCI tumour cell line growth inhibition, 48 h
[1] = test system: MDA-N
[2] = test system: DMS 114 small cell lung
[3] = test system: KM20L2 colon
[4] = test system: XF 498 CNS
[5] = test system: SNB-78 CNS
[6] = test system: LXFL 529 NSCLC
[7] = test system: RXF-631 renal
[8] = test system: DMS 273 small cell lung
[9] = test system: HOP-18 NSCLC

`CC(=NCCN(CCN=C(C)c1c(O)cc(C)oc1=O)CCN=C(C)c1c(O)cc(C)oc1=O)c1c(O)cc(C)oc1=O` gave a TGI [1] greater than 100 µM.
In the case of `OCCN(CCO)c1cccc(N(CCO)CCO)c1`, the TGI [2] is reported as greater than 100 µM, the TGI [3] is reported as greater than 100 µM and the TGI [4] is reported as greater than 100 µM. The TGI [5] was greater than 100 µM, the TGI [6] was greater than 100 µM and the TGI [7] was greater than 100 µM. It also gave a TGI [8] greater than 100 µM.
`C[N+](C)([O-])CCCNc1c2ccccc2nc2cccc([N+](=O)[O-])c12` showed a TGI [1] of 0.524 µM.
`COc1ccccc1/C=C1\CCC(CNc2ccc(Cl)cc2)C1=O` (stereo unspecified) gave a TGI [2] of 22.5 µM, a TGI [3] of 4.87 µM and a TGI [4] of 42.7 µM. It also gave a TGI [5] of 54.5 µM, a TGI [6] of 13.7 µM and a TGI [9] of 30.2 µM. It also gave a TGI [8] of 20.2 µM.
`Cn1cc(NC(=O)c2cc(NC(=O)Nc3cc(C(=O)Nc4cc(C(=O)NCCC(=N)N)n(C)c4)n(C)c3)cn2C)cc1C(=O)NCCC(=N)N` showed a TGI [2] greater than 100 µM, a TGI [3] greater than 100 µM and a TGI [4] of 45.8 µM. It also gave a TGI [5] of 82 µM, a TGI [6] greater than 100 µM and a TGI [9] greater than 100 µM. It also gave a TGI [7] of 56.9 µM and a TGI [8] of 29.6 µM.
`COc1cc(N=Nc2ccccc2)cc(/C=N\[N-]C(N)=S)c1[O-].COc1cc(N=Nc2ccccc2)cc(/C=N\[N-]C(N)=S)c1[O-].[Fe+4]` gave a GI50 [2] of 11.8 µM, a TGI [2] of 83.4 µM and a GI50 [5] greater than 100 µM. For the same molecule, the TGI [5] was greater than 100 µM, the GI50 [6] was 13.7 µM and the TGI [6] was greater than 100 µM.
`c1cc(C[S+]2CCCC2)ccc1C[S+]1CCCC1` was tested, and the TGI [1] was greater than 100 µM.
`N#CCCN(CCC#N)c1ccc(/C=C2\N=C(COc3ccc(Cl)cc3Cl)OC2=O)cc1` was tested, and the TGI [2] was greater than 100 µM, the TGI [3] was greater than 100 µM and the TGI [4] was greater than 100 µM. The TGI [5] was greater than 100 µM, the TGI [6] was greater than 100 µM and the TGI [7] was greater than 100 µM. It also gave a TGI [8] greater than 100 µM.
Work on `CC(=N\O)/C(C)=N/O.CC(=N\O)/C(C)=N/O.CC(=N\O)/C(C)=N/O.CC(=N\O)/C(C)=N/O.[Cu].[Cu]` yielded a GI50 [1] of 20.5 µM and a TGI [1] of 43.5 µM.
With `Cc1ccc(C(=O)O/N=C2/CCCCC2CN(C)C)cc1` (stereo unspecified) the TGI [2] was greater than 100 µM, the TGI [3] was greater than 100 µM and the TGI [5] was greater than 100 µM. For the same molecule, the TGI [6] was greater than 100 µM, the TGI [9] was greater than 100 µM and the TGI [7] was greater than 100 µM. The TGI [8] was greater than 100 µM.
Work on `Oc1ccc2occ3c2c1CCC3` yielded a TGI [2] greater than 100 µM, a TGI [3] greater than 100 µM and a TGI [4] greater than 100 µM. It also gave a TGI [5] greater than 100 µM, a TGI [6] greater than 100 µM and a TGI [9] greater than 100 µM. For the same molecule, the TGI [7] was greater than 100 µM and the TGI [8] was greater than 100 µM.
Work on `O=C(CC1(O)C(=O)Nc2ccc(Br)cc21)c1ccc(Cl)cc1` (stereo unspecified) yielded a TGI [3] greater than 100 µM, a TGI [5] greater than 100 µM and a TGI [6] greater than 100 µM. The TGI [9] was greater than 100 µM and the TGI [7] was greater than 100 µM.
`COc1ccc(S(=O)(=O)N/N=C/CN2C(=O)c3ccccc3C2=O)cc1OC` was tested, and the TGI [2] was greater than 100 µM, the TGI [3] was greater than 100 µM and the TGI [4] was greater than 100 µM. It also gave a TGI [6] greater than 100 µM, a TGI [7] greater than 100 µM and a TGI [8] greater than 100 µM.
For `CCON=C1C(C)(C)C(C)(C)C(C)(C)C1(C)C`, the TGI [1] was greater than 100 µM.
`CC1CCC2(NC1)OC1CC3[C@@H]4CC=C5C=CCC[C@]5(C)C4CC[C@]3(C)C1C2C` (stereo partly specified) showed a TGI [2] of 46.8 µM, a TGI [3] of 33.8 µM and a TGI [4] of 33 µM. For the same molecule, the TGI [5] was greater than 100 µM and the TGI [9] was greater than 100 µM.
Molecule `CCN(CC)c1ccc(N=C2C=CC(=O)c3ncccc32)c(C)c1` has a TGI [2] of 12.9 µM, a TGI [3] of 26.5 µM and a TGI [4] of 5.19 µM. For the same molecule, the TGI [5] was 31.2 µM, the TGI [6] was 8.67 µM and the TGI [9] was 22.8 µM. For the same molecule, the TGI [7] was 28.6 µM and the TGI [8] was 20.6 µM.
For `O=S(=O)([O-])[O-].[Cl-].[NH2-].[NH2-].[NH2-].[NH2-].[Ru+3].c1ccc(-c2cccnc2)cc1`, the GI50 [3] was greater than 100 µM, the TGI [3] was greater than 100 µM and the GI50 [5] was greater than 100 µM. For the same molecule, the TGI [5] was greater than 100 µM, the GI50 [6] was greater than 100 µM and the TGI [6] was greater than 100 µM. For the same molecule, the GI50 [8] was greater than 100 µM and the TGI [8] was greater than 100 µM.
`CN(C)c1ccc(/C=C/C(=O)C(C)(C)C)cc1Br` gave a TGI [2] of 40.1 µM, a TGI [3] of 79.5 µM and a TGI [4] of 30.3 µM. The TGI [5] was greater than 100 µM, the TGI [6] was 92.4 µM and the TGI [9] was greater than 100 µM.
In the case of `CC1CCc2c(sc3ncnc(N/N=C/c4ccc(Cl)c(Cl)c4)c23)C1` (stereo unspecified), the TGI [2] is reported as 13.3 µM, the TGI [3] is reported as greater than 100 µM and the TGI [8] is reported as 39.6 µM.
Molecule `CO/C(=N\N=C\c1ccc(Cl)cc1Cl)c1ccncc1` has a TGI [1] greater than 10 µM.
`NC1C2C(CC(=O)O)OCC=C3CN4CCC1(C(=O)C(=O)O)C4CC32` (stereo unspecified) gave a TGI [1] greater than 100 µM.
Work on `CC(=O)NC1=C(C)C(=O)c2c(nc3n2CCC3O)C1=O` (stereo unspecified) yielded a TGI [2] of 21 µM, a TGI [3] greater than 100 µM and a TGI [4] of 38.1 µM. It also gave a TGI [5] of 64.4 µM, a TGI [6] of 41.8 µM and a TGI [9] greater than 100 µM. It also gave a TGI [8] greater than 100 µM.
Work on `Cc1cc2c(cc1C)[n+](=O)c(C(=O)/C=C/c1ccc(Cl)cc1)c(C)n2[O-]` yielded a TGI [2] of 94.4 µM, a TGI [3] greater than 100 µM and a TGI [4] of 68.6 µM. For the same molecule, the TGI [5] was greater than 100 µM, the TGI [6] was greater than 100 µM and the TGI [9] was greater than 100 µM. The TGI [8] was greater than 100 µM.
With `NC1CCCCC1N.O=C([O-])P(=O)([O-])[O-].[Na+].[Pt+4]` (stereo unspecified) the GI50 [3] was greater than 100 µM, the TGI [3] was greater than 100 µM and the GI50 [5] was greater than 100 µM. It also gave a TGI [5] greater than 100 µM, a GI50 [6] greater than 100 µM and a TGI [6] greater than 100 µM. The GI50 [9] was greater than 100 µM and the TGI [9] was greater than 100 µM.
Work on `CCN(CC)CC(=O)/C=C/c1ccc(C)cc1` yielded a TGI [2] of 37.9 µM, a TGI [3] of 49.4 µM and a TGI [4] of 92.4 µM. For the same molecule, the TGI [5] was greater than 100 µM, the TGI [6] was 33 µM and the TGI [9] was 59.6 µM. It also gave a TGI [8] of 55 µM.
With `CC(C)COC(=O)N1N=NC2C3OC(CC3=O)C21` (stereo unspecified) the TGI [2] was greater than 100 µM, the TGI [3] was greater than 100 µM and the TGI [4] was greater than 100 µM. For the same molecule, the TGI [6] was greater than 100 µM, the TGI [9] was greater than 100 µM and the TGI [8] was greater than 100 µM.
`O=C1CCC2CCc3cccc4oc1c2c34` (stereo unspecified) was tested, and the TGI [2] was greater than 100 µM, the TGI [3] was greater than 100 µM and the TGI [4] was greater than 100 µM. For the same molecule, the TGI [5] was greater than 100 µM, the TGI [6] was greater than 100 µM and the TGI [9] was greater than 100 µM. For the same molecule, the TGI [8] was greater than 100 µM.
Molecule `CCNc1c(C(=O)N(CC)CC)c(=O)[nH]c2ncccc12` has a TGI [2] greater than 100 µM, a TGI [3] greater than 100 µM and a TGI [5] greater than 100 µM. The TGI [6] was greater than 100 µM and the TGI [8] was greater than 100 µM.
`CS(=O)(=O)OCCN1CCN(C(=O)c2cccc3c(Nc4ccc(S(N)(=O)=O)cc4)c4ccccc4nc23)CC1` was tested, and the TGI [2] was greater than 57.6 µM, the TGI [3] was greater than 100 µM and the TGI [4] was greater than 100 µM. For the same molecule, the TGI [5] was greater than 100 µM, the TGI [6] was greater than 100 µM and the TGI [9] was greater than 100 µM. The TGI [7] was greater than 100 µM and the TGI [8] was greater than 100 µM.
For `CC1=C(C)CC2(SC1)C(=O)c1ccccc1C2=O`, the TGI [2] was greater than 100 µM, the TGI [3] was greater than 100 µM and the TGI [5] was greater than 100 µM. For the same molecule, the TGI [6] was greater than 100 µM, the TGI [9] was greater than 100 µM and the TGI [7] was greater than 100 µM. It also gave a TGI [8] greater than 100 µM.
For `O=C(O)CNS(=O)(=O)c1ccc(NC(=O)c2ccc(F)cc2)cc1`, the TGI [3] was greater than 100 µM, the TGI [4] was greater than 100 µM and the TGI [6] was greater than 100 µM. For the same molecule, the TGI [9] was greater than 100 µM, the TGI [7] was greater than 100 µM and the TGI [8] was greater than 100 µM.
`O=C1CSC2=NCC3(NN12)c1ccccc1-c1ccccc13` showed a TGI [1] greater than 10 µM.
Molecule `COC(=O)c1ccccc1C#CCCCOS(C)(=O)=O` has a TGI [1] greater than 10 µM.
Molecule `N=S(=O)(c1ccccc1)c1ccccc1[N+](=O)[O-]` (stereo unspecified) has a TGI [3] greater than 100 µM, a TGI [4] greater than 100 µM and a TGI [5] greater than 100 µM. For the same molecule, the TGI [6] was greater than 100 µM, the TGI [9] was greater than 100 µM and the TGI [7] was greater than 100 µM. For the same molecule, the TGI [8] was greater than 100 µM.
Molecule `O=C1O[C@H](C(Cl)(Cl)Cl)N2CCCC12` (stereo partly specified) has a TGI [2] greater than 100 µM, a TGI [3] greater than 100 µM and a TGI [4] greater than 100 µM. The TGI [6] was greater than 100 µM, the TGI [9] was greater than 100 µM and the TGI [8] was greater than 100 µM.
`O=c1[nH]c(-c2ccccc2)nc2ccc(Cl)cc12` gave a TGI [2] greater than 100 µM, a TGI [3] greater than 100 µM and a TGI [5] greater than 100 µM. The TGI [6] was greater than 100 µM and the TGI [8] was greater than 100 µM.
`CCOP(=O)(OCC)/C(=C\N1C(=O)CC(=O)NC1=S)C(=O)OC` gave a TGI [1] greater than 100 µM.
`O=C(Nc1c(Cl)cc([N+](=O)[O-])cc1Cl)C(=O)C1C(=O)NC(=S)NC1=O` showed a TGI [1] greater than 100 µM.
For `CS(=O)(=O)N(CCC#N)c1ccc(/C=N/NC(=O)CC(=O)Nc2cccc(Cl)c2)cc1`, the TGI [2] was greater than 100 µM, the TGI [3] was greater than 100 µM and the TGI [5] was greater than 100 µM. It also gave a TGI [6] greater than 100 µM, a TGI [9] greater than 100 µM and a TGI [8] greater than 100 µM.
In the case of `COc1cccc2c1C1(O)C2CCCC12OCCCO2` (stereo unspecified), the TGI [2] is reported as greater than 100 µM, the TGI [3] is reported as greater than 100 µM and the TGI [5] is reported as greater than 100 µM. For the same molecule, the TGI [6] was greater than 100 µM, the TGI [9] was greater than 100 µM and the TGI [8] was greater than 100 µM.
